Reference: patent US6153429A (priority 1997, dated 2000)

Assays:
in vitro = conditions: mouse, c3h/10t1/2 t1 cells
[1] = background statement, chemicals identified by IARC; cited from earlier work

SMILES | fold induction at 504 h (in vitro) | mutagenicity [1]
Cn1c(=O)c2c(ncn2C)n(C)c1=O [caffeine] | 1 | 
C1CCOC1 [tetrahydrofuran] | 1 | 
c1ccc2c(c1)cc1ccc3cccc4ccc2c1c34 [Benzo[a]pyrene, benzo[a]pyrene] | 1.15 | 
C=C(C)C12OC3(c4ccccc4)OC1C1C4OC4(CO)C(O)C4(O)C(=O)C(C)=CC4C1(O3)C(C)C2OC(=O)/C=C/C=C/c1ccccc1 (stereo not drawn) [Mezerein, mezerein] | 2 | 
CC/C(=C(/CC)c1ccc(O)cc1)c1ccc(O)cc1 [Diethylstilbestroel, diethylstilbestroel] | 1.12 | only weakly mutagenic
